In article PMC12148948, “Targeting enabled homolog with daunorubicin inhibits ERK1/2/c‐Fos pathway and suppresses hepatocellular carcinoma progression” (Clinical and Translational Medicine, 2025):

Molecular target: T1, enabled homolog (ENAH) (Homo sapiens, UniProt Q8N8S7)
T1 sequence (Q8N8S7 1-591): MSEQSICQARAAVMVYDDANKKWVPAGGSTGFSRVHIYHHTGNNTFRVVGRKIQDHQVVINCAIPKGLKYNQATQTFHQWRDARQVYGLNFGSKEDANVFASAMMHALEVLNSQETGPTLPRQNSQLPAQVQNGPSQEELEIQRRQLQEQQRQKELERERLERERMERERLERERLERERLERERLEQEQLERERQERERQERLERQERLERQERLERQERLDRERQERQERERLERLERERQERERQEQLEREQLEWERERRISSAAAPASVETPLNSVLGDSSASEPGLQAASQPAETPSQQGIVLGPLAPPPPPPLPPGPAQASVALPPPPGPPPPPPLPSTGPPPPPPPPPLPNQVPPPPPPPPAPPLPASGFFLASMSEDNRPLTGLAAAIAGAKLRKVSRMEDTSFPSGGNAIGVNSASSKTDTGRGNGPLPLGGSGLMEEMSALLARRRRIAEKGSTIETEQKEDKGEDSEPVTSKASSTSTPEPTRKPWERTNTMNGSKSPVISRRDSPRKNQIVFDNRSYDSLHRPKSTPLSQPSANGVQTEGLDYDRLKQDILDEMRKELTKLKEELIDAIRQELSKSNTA
Test: CETSA in HCCLM3 cells ([…] daunorubicin), western blot
Format: cell-based

COc1cccc2c1C(=O)c1c(O)c3c(c(O)c1C2=O)C[C@@](O)(C(C)=O)C[C@@H]3O[C@H]1C[C@H](N)[C@H](O)[C@H](C)O1 [compound 11, daunorubicin]
CETSA in HCCLM3 cells (1 μM daunorubicin), western blot: The interaction between ENAH and daunorubicin was confirmed by the cellular thermal shift assay (CETSA)
